These results are taken from patent US8080582B2, “Derivatives of 8-epiblechnic acid and their effects on down-regulation of endothelin (ETA) receptor mRNA” (ScinoPharm Taiwan Ltd., priority 2008, dated 2011).

Holding throughout (assay type): cell-based
Series [1] in a line: MTT cell viability / observation of normal vascular smooth muscle cells (A10). The note with it: rat, A10 cells, drug concentration 0.2 mM, MTT. As for the experimental part: (§1) The cells (1×10^5 cells/well in 24-well plates) were cultured for 24 hrs. Different concentrations of Sal-B and its analogs (0, 50, 100, 150, 200, 250 μg/ml) were added to treat the cells. After treating for 48 hrs, 100 μl MTT solution was added to each well, and the plate was placed in an incubator for 1-4 hrs. After adding 400 μl DMSO to treat the cells for 30 min., 200 μl samples were collected and placed in a 96-well plate to conduct the absorption measurement at 550 nm.
(§2) Cell viability testing (MTT testing) was employed to determine the cytotoxicity of Sal-B and EBA to vascular smooth muscle cells. Vascular smooth muscle cells (cell line A10) were treated with Sal-B and EBA at concentrations of 0, 0.1, 0.2, 0.3, 0.4, and 0.5 mM. After treating for 48 hrs, MTT was added and allowed to react for 3 hrs at 37° C. Then, DMSO was added and allowed to react for 30 min., after that, the OD570 absorption values were measured. Cell viability was still 90% when the drug concentration reached 0.2 mM.
(§3) Sal-B's analogs, compounds A to F, were dissolved in DMSO, and then added to A10 cells to observe the results.

A short description of series [2]: MTT cell viability, nasopharyngeal cancer cells. The note with it: human, Hone-1 nasopharyngeal cancer cells, 48 hrs, MTT. As for the experimental part:
as §1
(§4) Cancer cells were treated with Sal-B and EBA at concentrations of 0, 0.1, 0.2, 0.3, 0.4, 0.5 mM. After treating for 48 hrs, MTT was added, and then allowed to react for 3 hrs at 37° C. After that, DMSO was added and allowed to react for 30 min., the OD570 absorption values were measured. Cell viability was above 80% when nasopharyngeal cancer cells (Hone-1) were treated with […] Sal-B and EBA. […] But the cell viability remained above 70% for treating with 0.1 mM and 0.2 mM EBA. Similar results were obtained when prostate cancer cells (PC-3) were treated with the drugs: Cell viability was above 80% for treating PC-3 cells with 0.2 mM Sal-B or EBA.

Series [3] concerns nasopharyngeal cancer cells (Hone-1). Description: MTT cell viability, nasopharyngeal cancer cells. The note with it: Hone-1 cells, summary statement. As for the experimental part: as §1, §4
Series [4] is described as follows: MTT cell viability, prostate cancer cells. The note with it: human, PC-3 prostate cancer cells; PC-3, 0.2 mM, 48 hrs, MTT. As for the experimental part:
as §1, §4
MTT testing was employed to observe the viability of cancer cells after treating with Sal-B and the six synthetic analogs.

The subject of series [5] is ETAR gene expression in MCF-7 cells. The series is described as follows: PCR of ETAR gene expression in MCF-7 cancer cells. The note with it: 48 hrs. How it is done:
PC-3 and MCF-7 cancer cells were treated with Sal-B and EBA for 48 hrs, and the identical concentrations of cellular whole RNA were sampled for the synthesis of cDNA by using reverse transcriptase. The PCR method was then used to compare the amounts of endothelin receptor mRNA expression. While the PC-3 cells were treated with either Sal-B or EBA, its ETAR gene expression was not reduced.

Series [6] relates to PC-3 cancer cells. The series is described as follows: Flow cytometry cell cycle analysis (sub-G1, apoptosis) of PC-3 cells. The note with it: PC-3, 0.4 mM, 48 hrs, PI flow cytometry; control around 1.18%. As for the experimental part: After suspending cells, the precooled 70% ethanol was used for fixing the cells. After centrifuging the mixture for 10 min. at 3,000 rpm, supernatant liquid was removed. Propidium iodide (PI) buffer (0.1% Triton X-100, 0.2 μg/ml RNase A, 40 μg/ml PI) was added, and then the solution was kept still at 37° C. for 30 min. After that, the cell cycle analysis was conducted by flow cytometry.
Flow cytometry was used to determine whether Sal-B and its analogs induced apoptosis in cancer cells. After treating PC-3 cancer cells with 0.4 mM Sal-B and EBA, and 0.01 mM compounds B and A for 48 hrs, the cells were collected and allowed to react with PI buffer for 30 min. Flow cytometry was then employed to measure the cell cycle. Approximately 5.16% of PC-3 cancer cells were at sub-G1 phase after treating with Sal-B, roughly 5.27% were at sub-G1 phase after treating with compound B, and roughly 8.54% were at sub-G1 phase after treating with compound A. However, for the control, only around 1.18% of the cells were at sub-G1 phase. Therefore, Sal-B and its analogs (compounds B and A) thus caused a significant increase in the percentage of cells at sub-G1 phase.

Series [7] deals with Vascular smooth muscle cells (cell line A10). The series is described as follows: MTT cell viability / observation of normal vascular smooth muscle cells (A10). The note with it: A10 cells, drug concentration 0.2 mM, 48 hrs, MTT. How it is done:
as §1, §2, §3

A word on the viability: it is a read-out of living cells in per cent, often relative to untreated cells. A low value points to more harm to the cells.

For `O=C(/C=C/c1ccc(O)c2c1[C@H](C(=O)O[C@H](Cc1ccc(O)c(O)c1)C(=O)[O-])[C@@H](c1ccc(O)c(O)c1)O2)O[C@H](Cc1ccc(O)c(O)c1)C(=O)[O-].[Mg+2]` [Sal-B, magnesium lithospermate B], the viability at 48 h, 0.2 mM was 90% in series [1] and over 80% in series [4]. Further, the viability at 48 h, 0.05 mM in series [2] (Hone-1, 0.05 mM) was over 80%. In series [2] (Hone-1, 0.1 mM and 0.2 mM), this molecule displayed a viability at 48 h of about 60%. Also, in series [3], the “Inhibition of growth of Hone-1 cells” value is given as “significantly inhibit the growth”. Also, the “ETAR gene (mRNA) expression” value in series [5] was “can reduce the expression of ETAR mRNA”. Further, the “PC-3 cancer cells at sub-G1 phase” value in series [6] is reported as “Approximately 5.16%”.

epiblechnic acid [EBA] displayed a Cell viability in series [7] of 90%. Also, the “ETAR gene (mRNA) expression” value in series [5] is listed as “reduced significantly”. For the same molecule, the “PC-3 cancer cells at sub-G1 phase” value in series [6] is given as “approximately 1.73%”.
